System: alkaline phosphatase
Assay: not given
Details: cited from earlier work

Row | Structure (SMILES) | inhibition of enzymatic activity
1 | CCC12C(=O)C(CC)(C(c3ccccc3)=C1c1ccccc1)C1C(=O)N(CC(O)CNC(C)C)C(=O)C12 (stereo not shown) [Compound (I)] | inhibited
2 | CCC12C(=O)C(CC)(C(c3ccccc3)=C1c1ccccc1)C1C(=O)N(CC(O)CN(C)C)C(=O)C12 (stereo not shown) [Compound (II)] | inhibited

System: acid phosphatase
Assay: not given
Parameters: method as in PMID 34769193
Details: cited from earlier work

Row | Structure (SMILES) | inhibition of enzymatic activity
3 | CCC12C(=O)C(CC)(C(c3ccccc3)=C1c1ccccc1)C1C(=O)N(CC(O)CNC(C)C)C(=O)C12 (stereo not shown) [Compound (I)] | inhibited
4 | CCC12C(=O)C(CC)(C(c3ccccc3)=C1c1ccccc1)C1C(=O)N(CC(O)CN(C)C)C(=O)C12 (stereo not shown) [Compound (II)] | inhibited

System: acetylcholinesterase
Assay: not given
Details: cited from earlier work

Row | Structure (SMILES) | inhibition of enzymatic activity
5 | CCC12C(=O)C(CC)(C(c3ccccc3)=C1c1ccccc1)C1C(=O)N(CC(O)CNC(C)C)C(=O)C12 (stereo not shown) [Compound (I)] | inhibited
6 | CCC12C(=O)C(CC)(C(c3ccccc3)=C1c1ccccc1)C1C(=O)N(CC(O)CN(C)C)C(=O)C12 (stereo not shown) [Compound (II)] | inhibited

Target: T1, Catalase from human erythrocytes (EC 1.11.1.6, CAT) (Homo sapiens, UniProt P04040)
T1 construct: Catalase from human erythrocytes (EC 1.11.1.6, CAT); purchased Sigma–Aldrich (Poznań, Poland); host or cells: human erythrocytes (natural source)
T1 sequence (P04040 2-527 limits assumed): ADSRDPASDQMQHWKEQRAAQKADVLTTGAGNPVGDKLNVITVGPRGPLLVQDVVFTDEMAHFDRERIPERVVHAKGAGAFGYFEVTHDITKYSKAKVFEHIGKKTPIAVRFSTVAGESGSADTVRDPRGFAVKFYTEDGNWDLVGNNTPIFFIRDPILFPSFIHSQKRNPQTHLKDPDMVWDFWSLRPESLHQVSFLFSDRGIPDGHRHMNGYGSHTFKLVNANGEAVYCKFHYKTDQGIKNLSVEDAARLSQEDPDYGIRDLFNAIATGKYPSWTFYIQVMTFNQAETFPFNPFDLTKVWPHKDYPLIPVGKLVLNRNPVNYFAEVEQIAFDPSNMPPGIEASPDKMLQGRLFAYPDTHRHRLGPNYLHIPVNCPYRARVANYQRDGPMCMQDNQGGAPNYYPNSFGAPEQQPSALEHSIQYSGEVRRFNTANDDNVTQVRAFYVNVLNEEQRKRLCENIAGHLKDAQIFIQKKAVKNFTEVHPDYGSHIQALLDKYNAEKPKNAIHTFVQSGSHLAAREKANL
Assay: Catalase (CAT) inhibition kinetics by capillary electrophoresis (hydrogen peroxide/guaiacol/tetraguaiacol)
Format: biochemical
Details: from Km and Vmax versus control system
From the text: In this study, we used the capillary electrophoresis (CE) method developed by us to determine the tetraguaiacol complex as a product of the catalase-catalyzed reaction (CAT) (Table 1) in the presence of the enzyme, hydrogen peroxide (HPER) (as a substrate), guaiacol (GCOL) and inhibitors (I), (II), (III) and (IV) (Figure 2). Based on this method, we investigated changes in the concentration of guaiacol reacting with changes in the concentration of hydrogen peroxide depending on the activity of catalase and changes in the concentrations of the formed tetraguaiacol as the final reaction product. The developed CE technique made it possible to measure all the parameters thanks to the possibility of using three wavelengths simultaneously in one analysis. Investigations of kinetic parameters were based on mutual measurements of concentration changes between guaiacol (as the second reactant reacting with hydrogen peroxide) and tetraguaiacol as the final reaction product.
For the development of this method, we optimized the buffer pH, separating background electrolyte (BGE) concentration, wavelength, temperature, and voltage in accordance with the earlier procedure. […]. All these separation systems were tested to achieve the best separation parameters, resolution, and analysis time for all components in the reaction mixture. The best separation of tetraguaiacol, guaiacol, catalase (CAT) and compounds (I), (II), (III), (IV) was obtained with 100 mM phosphate buffer (pH 7.5). The measurements were taken at 214, 274 and 470 nm with a fused-silica capillary (effective length: 20 cm, diameter: 50 μm). The capillary temperature was 25 °C, which allowed the best resolution to be achieved. Separation was carried out at 20 kV. Each sample was added to the capillary under hydrodynamic injection. Average detection times for guaiacol (GCOL), compounds (I), (II), (III), (IV), tetraguaiacol (TGCOL) and CAT were […], respectively (Figure 2). […]. […]
Electrophoretic separations of catalase (CAT), hydrogen peroxide, guaiacol (GCOL) tetra guaiacol (TGCOL), and inhibitors (I), (II), (III) and (IV) of catalase, by CE was performed using 100 mM (NaH2PO4) phosphate buffer as a background electrolyte (BGE) adjusted with 100 mM sodium hydroxide to the pH = 7.5. The samples were injected under 5 psi pressure for 3 s. The experiments were performed under constant current conditions (97 μA). The separation temperature was 25 °C, and the detection wavelengths were set at 214, 274 and 470 nm. Before the assay, the capillary was conditioned according to the previously described procedure.
Sample mixtures containing catalase (CAT), hydrogen peroxide (HPER), guaiacol (GCOL), tetra guaiacol (TGCOL), and inhibitors (I), (II), (III) and (IV) were introduced automatically by pressure injection (with 5 psi pressure for 3 s on the sample solution). At the day’s end, vials with anode and a cathode buffer were emptied and a running buffer was filled again at the start of the next day before the analysis. The detector wavelength was fixed at 470 nm. Hydrogen peroxide was not detected at wavelength of 470 nm. The appropriate parameters for analyzing CAT, TGCOL and (I), (II), (III) and (IV) inhibitors were as follows: phosphate buffer (pH = 7.5) of 100 mM concentration, 25 °C temperature, and 20 kV voltage.
The CAT in the amount of 10 μg was dissolved in the 10 mL 100 mM phosphate buffer, pH 7.5 and divided into several portions, which were stored at −20 °C. One aliquot was thawed each day and the CAT activity was checked. For kinetic studies a catalase solution with a final concentration of 1 µg/mL was prepared. The working solutions of GCOL, TGCOL and HPER in appropriate concentrations were prepared immediately before use by dilution with the phosphate buffer according to the previously described procedure. […]

Row | Structure (SMILES) | Type of inhibition
7 | CCC12C(=O)C(CC)(C(c3ccccc3)=C1c1ccccc1)C1C(=O)N(CC(O)CNC(C)C)C(=O)C12 (stereo not shown) [Compound (I)] | Competitive
8 | CCC12C(=O)C(CC)(C(c3ccccc3)=C1c1ccccc1)C1C(=O)N(CC(O)CN(C)C)C(=O)C12 (stereo not shown) [Compound (II)] | Competitive

Same assay, conditions: from activity (%) versus inhibitor concentration plots; one value per compound

Row | Structure (SMILES) | IC50
9 | CCC12C(=O)C(CC)(C(c3ccccc3)=C1c1ccccc1)C1C(=O)N(CC(O)CNC(C)C)C(=O)C12 (stereo not shown) [Compound (I)] | 11.4 ± 0.05 mM
10 | CCC12C(=O)C(CC)(C(c3ccccc3)=C1c1ccccc1)C1C(=O)N(CC(O)CN(C)C)C(=O)C12 (stereo not shown) [Compound (II)] | 12.8 ± 0.07 mM

Same assay, conditions: inhibitor 2.50 mM; without inhibitor 1.26 ± 0.02

Row | Structure (SMILES) | Vmax
11 | CCC12C(=O)C(CC)(C(c3ccccc3)=C1c1ccccc1)C1C(=O)N(CC(O)CNC(C)C)C(=O)C12 (stereo not shown) [Compound (I)] | 1.25 ± 0.04 mM/min
12 | CCC12C(=O)C(CC)(C(c3ccccc3)=C1c1ccccc1)C1C(=O)N(CC(O)CN(C)C)C(=O)C12 (stereo not shown) [Compound (II)] | 1.24 ± 0.06 mM/min

Same assay, conditions: inhibitor 2.50 mM; without inhibitor 23.31 ± 0.04; n = 6

Row | Structure (SMILES) | Slope (slope angle of Lineweaver–Burk line)
13 | CCC12C(=O)C(CC)(C(c3ccccc3)=C1c1ccccc1)C1C(=O)N(CC(O)CNC(C)C)C(=O)C12 (stereo not shown) [Compound (I)] | 24.72 ± 0.05
14 | CCC12C(=O)C(CC)(C(c3ccccc3)=C1c1ccccc1)C1C(=O)N(CC(O)CN(C)C)C(=O)C12 (stereo not shown) [Compound (II)] | 23.70 ± 0.05

Same assay, conditions: inhibitor 5.00 mM

Row | Structure (SMILES) | Vmax
15 | CCC12C(=O)C(CC)(C(c3ccccc3)=C1c1ccccc1)C1C(=O)N(CC(O)CNC(C)C)C(=O)C12 (stereo not shown) [Compound (I)] | 1.24 ± 0.07 mM/min
16 | CCC12C(=O)C(CC)(C(c3ccccc3)=C1c1ccccc1)C1C(=O)N(CC(O)CN(C)C)C(=O)C12 (stereo not shown) [Compound (II)] | 1.24 ± 0.06 mM/min

Same assay, conditions: inhibitor 5.00 mM; n = 6

Row | Structure (SMILES) | Slope (slope angle of Lineweaver–Burk line)
17 | CCC12C(=O)C(CC)(C(c3ccccc3)=C1c1ccccc1)C1C(=O)N(CC(O)CNC(C)C)C(=O)C12 (stereo not shown) [Compound (I)] | 25.43 ± 0.05
18 | CCC12C(=O)C(CC)(C(c3ccccc3)=C1c1ccccc1)C1C(=O)N(CC(O)CN(C)C)C(=O)C12 (stereo not shown) [Compound (II)] | 24.24 ± 0.05

Same assay, conditions: inhibitor 10.00 mM

Row | Structure (SMILES) | Vmax
19 | CCC12C(=O)C(CC)(C(c3ccccc3)=C1c1ccccc1)C1C(=O)N(CC(O)CNC(C)C)C(=O)C12 (stereo not shown) [Compound (I)] | 1.25 ± 0.05 mM/min
20 | CCC12C(=O)C(CC)(C(c3ccccc3)=C1c1ccccc1)C1C(=O)N(CC(O)CN(C)C)C(=O)C12 (stereo not shown) [Compound (II)] | 1.26 ± 0.03 mM/min

Same assay, conditions: inhibitor 10.00 mM; n = 6

Row | Structure (SMILES) | Slope (slope angle of Lineweaver–Burk line)
21 | CCC12C(=O)C(CC)(C(c3ccccc3)=C1c1ccccc1)C1C(=O)N(CC(O)CNC(C)C)C(=O)C12 (stereo not shown) [Compound (I)] | 27.33 ± 0.06
22 | CCC12C(=O)C(CC)(C(c3ccccc3)=C1c1ccccc1)C1C(=O)N(CC(O)CN(C)C)C(=O)C12 (stereo not shown) [Compound (II)] | 25.30 ± 0.06

Same assay, conditions: inhibitor 15.00 mM

Row | Structure (SMILES) | Vmax
23 | CCC12C(=O)C(CC)(C(c3ccccc3)=C1c1ccccc1)C1C(=O)N(CC(O)CNC(C)C)C(=O)C12 (stereo not shown) [Compound (I)] | 1.24 ± 0.07 mM/min
24 | CCC12C(=O)C(CC)(C(c3ccccc3)=C1c1ccccc1)C1C(=O)N(CC(O)CN(C)C)C(=O)C12 (stereo not shown) [Compound (II)] | 1.25 ± 0.04 mM/min

Same assay, conditions: inhibitor 15.00 mM; n = 6

Row | Structure (SMILES) | Slope (slope angle of Lineweaver–Burk line)
25 | CCC12C(=O)C(CC)(C(c3ccccc3)=C1c1ccccc1)C1C(=O)N(CC(O)CNC(C)C)C(=O)C12 (stereo not shown) [Compound (I)] | 28.62 ± 0.06
26 | CCC12C(=O)C(CC)(C(c3ccccc3)=C1c1ccccc1)C1C(=O)N(CC(O)CN(C)C)C(=O)C12 (stereo not shown) [Compound (II)] | 26.00 ± 0.04

Same assay, conditions: inhibitor 20.00 mM

Row | Structure (SMILES) | Vmax
27 | CCC12C(=O)C(CC)(C(c3ccccc3)=C1c1ccccc1)C1C(=O)N(CC(O)CNC(C)C)C(=O)C12 (stereo not shown) [Compound (I)] | 1.25 ± 0.05 mM/min
28 | CCC12C(=O)C(CC)(C(c3ccccc3)=C1c1ccccc1)C1C(=O)N(CC(O)CN(C)C)C(=O)C12 (stereo not shown) [Compound (II)] | 1.24 ± 0.04 mM/min

Same assay, conditions: inhibitor 20.00 mM, hydrogen peroxide 10 mM, 20.00 mM GCOL; without inhibitors 0.00 mM

Row | Structure (SMILES) | tetraguaiacol (TGCOL) concentration in the presence of inhibitor
29 | CCC12C(=O)C(CC)(C(c3ccccc3)=C1c1ccccc1)C1C(=O)N(CC(O)CNC(C)C)C(=O)C12 (stereo not shown) [Compound (I)] | 5.86 mM
30 | CCC12C(=O)C(CC)(C(c3ccccc3)=C1c1ccccc1)C1C(=O)N(CC(O)CN(C)C)C(=O)C12 (stereo not shown) [Compound (II)] | 2.44 mM

Same assay, conditions: inhibitor 20.00 mM, hydrogen peroxide 10 mM, 20.00 mM GCOL; without inhibitors 20.00 mM

Row | Structure (SMILES) | guaiacol (GCOL) concentration in the presence of inhibitor
31 | CCC12C(=O)C(CC)(C(c3ccccc3)=C1c1ccccc1)C1C(=O)N(CC(O)CNC(C)C)C(=O)C12 (stereo not shown) [Compound (I)] | 14.14 mM
32 | CCC12C(=O)C(CC)(C(c3ccccc3)=C1c1ccccc1)C1C(=O)N(CC(O)CN(C)C)C(=O)C12 (stereo not shown) [Compound (II)] | 17.56 mM

Same assay, conditions: inhibitor 20.00 mM; n = 6

Row | Structure (SMILES) | Slope (slope angle of Lineweaver–Burk line)
33 | CCC12C(=O)C(CC)(C(c3ccccc3)=C1c1ccccc1)C1C(=O)N(CC(O)CNC(C)C)C(=O)C12 (stereo not shown) [Compound (I)] | 30.75 ± 0.04
34 | CCC12C(=O)C(CC)(C(c3ccccc3)=C1c1ccccc1)C1C(=O)N(CC(O)CN(C)C)C(=O)C12 (stereo not shown) [Compound (II)] | 27.06 ± 0.05

— paper PMC9266750, “Catalase Inhibition by Aminoalkanol Derivatives with Potential Anti-Cancer Activity—In Vitro and In Silico Studies Using Capillary Electrophoresis Method” (International Journal of Molecular Sciences, 2022)
